Consider 10 compounds from patent US7405303B2, “Substituted quinoline compounds for use as selective estrogen receptor modulator” (SmithKline Beecham Corporation, priority 2004, dated 2008).

Like-named read-outs stand apart in the source and are kept apart here.

The target of experiment [1] is T1, GST-hERα (ligand binding domain) (Homo sapiens, UniProt P03372).
T1 construct: made in house; host or cells: E. coli BL21 (DE3)pLYS S
T1 sequence (P03372 311-547 limits assumed): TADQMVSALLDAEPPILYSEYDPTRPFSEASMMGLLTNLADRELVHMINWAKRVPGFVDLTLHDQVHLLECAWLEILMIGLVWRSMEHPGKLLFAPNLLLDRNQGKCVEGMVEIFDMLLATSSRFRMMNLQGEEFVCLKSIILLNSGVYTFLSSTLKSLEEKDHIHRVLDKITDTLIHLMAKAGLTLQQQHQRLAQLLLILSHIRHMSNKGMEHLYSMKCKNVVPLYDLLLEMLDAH
As to the kind of experiment: SPA competition binding assay, ERα. The settings on record: for Avg. ER α pKi: SPA competition binding vs 1 nM [3H]estradiol, apparent Ki, n = 2; for Ki: read-out: Avg. ER α pKi (converted). The protocol: (§1) The ligand binding domain of both ERα and ERβ were sub-cloned into pGEX-2T vector which had been modified to contain KpnI and BamHI restriction sites in the multiple cloning region. GST-hERα and GST-hERβ proteins were made by transforming BL21 (DE3)pLYS S competent cells with the appropriate expression plasmid. […] The cells were collected by centrifugation and resuspended in lysis buffer (50 mM Tris pH 7.9; 250 mM KCl; 1% Triton X-100; 10 mM DTT; 1 mM PMSF). The lysate was then placed on dry ice until completely frozen The frozen lysate was thawed and centrifuged 20 min at 4° C. at 80K rpm in a TLA 100.2 rotor in a Beckman TL-100 ultracentrifuge. The supernatant was retained and glycerol was added to a final concentration of 10%. The protein content of the supernatant was quantitated using the BioRad Protein Assay Reagent. The protein was then stored at −80° C. until used in the binding assay.
(§2) Polylysine coated Yttrium Silicate SPA beads (Amersham #RPNQ 0010) are resuspended in assay buffer [10 mM potassium phosphate buffer pH 7.0 containing 2 mM EDTA, 50 mM NaCl, 1 mM DTT, 2 mM CHAPS, 10% glycerol] to a concentration of 1 g/60 ml. 30 ul (0.5 mg) of the SPA beads are then added to each well of a Packard OptiPlate (Packard 6005190, Packard Instruments, Meriden, Conn.). […] [2,4,6,7,16,17-3H(N)]-Estradiol is added as a 30 ul aliquot to give a final assay concentration of 1 nM. […] The plates are shaken vigorously for two hours then counted on a Packard TopCount using the protocol for counting tritium yttrium silicate SPA beads. Data analysis was done by standard methods. % Bound was calculated for each concentration of each test compound using the equation % Bound=100*((Test−NS)/(T−NS)). % Bound was plotted vs concentration and curve fitting was accomplished using non-linear regression.

Experiment [2] concerns the target T2, GST-hERβ (ligand binding domain) (Homo sapiens, UniProt Q92731).
T2 construct: made in house; host or cells: E. coli BL21 (DE3)pLYS S
As to the kind of experiment: SPA competition binding assay, ERβ. To be noted: for Avg. ER β pKi: SPA competition binding vs 1 nM [3H]estradiol, apparent Ki, n = 2. How it is done: as §1, with “The lysate was then placed on dry ice until completely frozen The frozen lysate was thawed and centrifuged 20 min at 4° C. at 80K rpm in a TLA 100.2 rotor in a Beckman TL-100 ultracentrifuge.” left out
as §2, with “ml.” for “ml. 30 ul (0.5 mg) of the SPA beads are then added to each well of a Packard OptiPlate (Packard 6005190, Packard Instruments, Meriden, Conn.).”

T2 sequence (Q92731 264-498 limits assumed): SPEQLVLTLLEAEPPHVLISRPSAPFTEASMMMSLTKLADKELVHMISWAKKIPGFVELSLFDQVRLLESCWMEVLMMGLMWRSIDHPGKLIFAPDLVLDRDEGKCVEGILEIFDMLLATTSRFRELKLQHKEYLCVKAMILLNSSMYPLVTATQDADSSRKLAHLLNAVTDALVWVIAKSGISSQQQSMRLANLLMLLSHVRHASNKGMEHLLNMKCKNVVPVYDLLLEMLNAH

As for “4-[(7-Hydroxy-2-ethyl-3-(3-trifluoromethylphenyl)-4-quinolinyl)oxyphenyl]-2-propenoic acid [Example 8]”, the “Avg. ER α pKi” value in experiment [1] was 7.05. For the same compound, the “Avg. ER β pKi” value in experiment [2] stood at 6.57.
In the case of “4-[(7-Hydroxy-2-ethyl-3-(3-trifluoromethylphenyl]-4-quinolinyl)oxyphenyl]-2-propeno-N-isopropylamide [Example 7]”, the “Avg. ER α pKi” value in experiment [1] is on record as 7.51. The “Avg. ER β pKi” value in experiment [2] worked out at 7.26.
For “4-[(7-Hydroxy-2-ethyl-3-phenyl-4-quinolinyl)oxyphenyl]-2-propeno-N,N-dimethylamide [Example 4]”, in that order: 7.95 and 7.74.
For “4-[(7-Hydroxy-2-ethyl-3-phenyl-4-quinolinyl)oxyphenyl]-2-propeno-N-isopropylamide [Example 3]”, in that order: 8.01 and 7.76.
On to “4-[(7-Hydroxy-2-ethyl-3-phenyl-4-quinolinyl)oxyphenyl]-2-propeno-N-piperidineamide [Example 5]”, for which the “Avg. ER α pKi” value in experiment [1] is recorded as 7.55. In experiment [2], the “Avg. ER β pKi” value is recorded as 7.64.
For “4-[(7-Hydroxy-2-ethyl-3-phenyl-4-quinolinyl)oxyphenyl]-2-propenonitrile [Example 6]”, in that order: 7.59 and 7.50.
Consider “4-[(7-Hydroxy-2-phenyl-3-phenyl-4-quinolinyl)oxyphenyl]-2-propenoic acid [Example 9]”, for which the “Avg. ER α pKi” value in experiment [1] is given as 5.53. The “Avg. ER β pKi” value in experiment [2] came out at 6.17.
Regarding `CCc1nc2cc(O)ccc2c(Oc2ccc(/C=C/C(N)=O)cc2)c1-c1ccccc1` [Example 2, 4-[(7-Hydroxy-2-ethyl-3-phenyl-4-quinolinyl)oxyphenyl]-2-propenoamide], the Ki in experiment [1] was 14.8 nM; in experiment [2], 28.2 nM.
Regarding `CCc1nc2cc(O)ccc2c(Oc2cccc(/C=C/C(=O)O)c2)c1-c1ccccc1` [Example 10, 3-[(7-Hydroxy-2-ethyl-3-phenyl-4-quinolinyl)oxyphenyl]-2-propenoic acid], in experiment [1], the Ki was 1550 nM.
For the compound `CCc1nc2cc(O)ccc2c(Sc2ccc(/C=C/C(N)=O)cc2)c1-c1ccccc1` [Example 11, 4-[(7-Hydroxy-2-ethyl-3-phenyl-4-quinolinyl)thiophenyl]-2-propenoamide], the Ki in experiment [1] is 3160 nM; in experiment [2] (read-out: Avg. ER β pKi (converted)) it was 1820 nM.
